The test concerns synthetic preS2 peptide. The experiment in a line: Immunogenicity in mice: anti-preS2 antibodies by solid phase RIA on synthetic preS2 peptide. The conditions noted are these: Balb/c and NMRl mice, I.P., one month, pooled sera. The format is in vivo, mice: Balb/c (H₂-d) and NMRl (H₂-Q). The procedure:
The immunogenicity of particles prepared from extracts of cells containing pRIT12660 (Example 16) was studied in 2 strains of mice: Balb/c (H₂-d) and NMRl (H₂-Q). The particles were absorbed on Al(OH)₃ before injection and the mice (5 mice/group) were injected intraperitoneally (I.P.) with 0.3 µg of RIA reacting material. One month after the immunization, the mice were bled and the sera from the mice of the same group were pooled. The titer of anti-S antibodies was determined in the pools by using the AUSAB kit (Abbott Labs) and the WHO reference. The titers were converted in mIU/ml by using the Hollinger formula (Hollinger et al., in Szmuness et al., eds. Viral Hepatitis, Philadelphia : Franklin Institute Press, 451-466, 1982). The anti-preS2 antibodies were determined using a solid phase assay (RIA) in which the synthetic preS2 peptide given in Example 23, is absorbed on plastic and bound antibodies were detected with a goat anti-mouse IgG labelled with ¹²⁵I. […] PreS determinants enhance the response to the S determinants. This enhancing effect is not shown if the preS2 synthetic peptide is injected together with particles which lack the preS2.

Take `CSCC[C@H](N)C(=O)N[C@@H](CCC(=O)O)C(=O)N[C@@H](Cc1c[nH]c2ccccc12)C(=O)N[C@@H](CC(N)=O)C(=O)N[C@@H](CO)C(=O)N[C@H](C(=O)N[C@@H](C)C(=O)N[C@@H](Cc1ccccc1)C(=O)N[C@@H](Cc1c[nH]cn1)C(=O)N[C@@H](CCC(N)=O)C(=O)N[C@@H](C)C(=O)N[C@@H](CC(C)C)C(=O)N[C@@H](CCC(N)=O)C(=O)N[C@@H](CC(=O)O)C(=O)N1CCC[C@H]1C(=O)N[C@@H](CCCNC(=N)N)C(=O)N[C@H](C(=O)N[C@@H](CCCNC(=N)N)C(=O)NCC(=O)N[C@@H](CC(C)C)C(=O)N[C@@H](Cc1ccc(O)cc1)C(=O)N[C@@H](CC(C)C)C(=O)N1CCC[C@H]1C(=O)N[C@@H](C)C(=O)NCC(=O)N[C@@H](CS)C(=O)O)C(C)C)[C@@H](C)O` [preS2 synthetic peptide]: the “induction of anti-preS2 peptide antibodies” value is “unable to elicit anti-preS2 antibodies”.
